The values below come from ChEMBL document CHEMBL4138267, “Synthesis and SAR of 1,2,3,4-Tetrahydroisoquinoline-Based CXCR4 Antagonists” (ACS Med Chem Lett, 2018).

A short description of data set [1]: Permeability of the compound at pH 5.5 by PAMPA. Type of data set: ADME. On the technique in general: In PAMPA a lipid-coated filter parts donor from acceptor wells.
Data set [2] is described as follows: Permeability of the compound at pH 7.4 by PAMPA. The data set is classed as ADME.

Take `NCCCCN(C[C@H]1Cc2ccccc2CN1)[C@H]1CCCc2cccnc21`: the permeability result in data set [1] and in data set [2] was “Impermeable” each time.
Take `Cc1ccc([C@H](C)N(CCCCN)C[C@H]2Cc3ccccc3CN2)nc1`: the permeability entry in data set [1] and in data set [2] was “Impermeable” each time.
As to `COc1cccnc1CN(CCCCN)C[C@H]1Cc2ccccc2CN1`, the permeability result in data set [1] and in data set [2] was “Impermeable” in each case.
Regarding `NCCCCN(Cc1ccc(F)cn1)C[C@H]1Cc2ccccc2CN1`, the permeability result in data set [1] and in data set [2] was “Impermeable” in each case.
Take `NCCCCN(Cc1ccc2ccccc2n1)C[C@H]1Cc2ccccc2CN1`: the permeability result in data set [1] and in data set [2] was “Impermeable” in each case.
As for `Cc1cc(F)cnc1CN(CCCCN)C[C@H]1Cc2ccccc2CN1`, the permeability entry in data set [1] and in data set [2] was “Impermeable” throughout.
In the case of `NCCCCN(Cc1ccc(Cl)cn1)C[C@H]1Cc2ccccc2CN1`, the permeability result in data set [1] and in data set [2] was “Impermeable” in each case.
As to `NCCCCN(Cc1ccc(C(F)(F)F)cn1)C[C@H]1Cc2ccccc2CN1`, the permeability result in data set [1] and in data set [2] was “Impermeable” in each case.
As for `Cc1cnc2c(c1)CCC[C@@H]2N(CCCCN)C[C@H]1Cc2ccccc2CN1`, the permeability entry in data set [1] and in data set [2] was “Impermeable” throughout.
For the compound `NCCCCN(Cc1cc(Cl)ccn1)C[C@H]1Cc2ccccc2CN1`, the permeability result in data set [1] and in data set [2] was “Impermeable” each time.
In the case of `Cc1cccnc1[C@H](C)N(CCCCN)C[C@H]1Cc2ccccc2CN1`, the permeability entry in data set [1] and in data set [2] was “Impermeable” in each case.
Take `Cc1ccnc(CN(CCCCN)C[C@H]2Cc3ccccc3CN2)c1`: the permeability result in data set [1] and in data set [2] was “Impermeable” in each case.
Regarding `NCCCCN(Cc1cscn1)C[C@H]1Cc2ccccc2CN1`, the permeability result in data set [1] and in data set [2] was “Impermeable” each time.
On to `NCCCCN(Cc1ncccc1C1CC1)C[C@H]1Cc2ccccc2CN1`, for which the permeability result in data set [1] and in data set [2] was “Impermeable” throughout.
Turning to `C[C@@H](c1ccccn1)N(CCCCN)C[C@H]1Cc2ccccc2CN1`, the permeability result in data set [1] and in data set [2] was “Impermeable” throughout.
`Cc1cccc(CN(CCCCN)C[C@H]2Cc3ccccc3CN2)n1`: the permeability entry in data set [1] and in data set [2] was “Impermeable” throughout.
`NCCCCN(Cc1ncccc1F)C[C@H]1Cc2ccccc2CN1`: the permeability result in data set [1] and in data set [2] was “Impermeable” each time.
For `Cc1nc(CN(CCCCN)C[C@H]2Cc3ccccc3CN2)cs1`, the permeability entry in data set [1] and in data set [2] was “Impermeable” throughout.
Turning to `Cc1cnc(CN(CCCCN)C[C@H]2Cc3ccccc3CN2)c(C)c1`, the permeability entry in data set [1] and in data set [2] was “Impermeable” each time.
Regarding `COc1ccc(CN(CCCCN)C[C@H]2Cc3ccccc3CN2)nc1`, the permeability result in data set [1] and in data set [2] was “Impermeable” in each case.
Take `NCCCCN(C[C@H]1Cc2ccccc2CN1)[C@H]1CCOc2cccnc21`: the permeability entry in data set [1] and in data set [2] was “Impermeable” throughout.
`NCCCCN(Cc1nccc2ccccc12)C[C@H]1Cc2ccccc2CN1`: the permeability entry in data set [1] and in data set [2] was “Impermeable” throughout.
Regarding `NCCCCN(Cc1ncccc1Cl)C[C@H]1Cc2ccccc2CN1`, the permeability result in data set [1] and in data set [2] was “Impermeable” each time.
As to `Cc1cnc(CN(CCCCN)C[C@H]2Cc3ccccc3CN2)c(F)c1`, the permeability entry in data set [1] and in data set [2] was “Impermeable” throughout.
In the case of `Cc1cccnc1CN(CCCCN)C[C@H]1Cc2ccccc2CN1`, the permeability entry in data set [1] and in data set [2] was “Impermeable” in each case.
As to `NCCCCN(Cc1ncccc1C(F)(F)F)C[C@H]1Cc2ccccc2CN1`, the permeability entry in data set [1] and in data set [2] was “Impermeable” each time.
Turning to `NCCCCN(Cc1ccccn1)C[C@H]1Cc2ccccc2CN1`, the permeability entry in data set [1] and in data set [2] was “Impermeable” each time.
With `Cc1ccc(CN(CCCCN)C[C@H]2Cc3ccccc3CN2)nc1`, the permeability result in data set [1] and in data set [2] was “Impermeable” throughout.
Regarding `NCCCCN(Cc1cc2ccccc2cn1)C[C@H]1Cc2ccccc2CN1`, the permeability entry in data set [1] and in data set [2] was “Impermeable” each time.
For `C=Cc1cccnc1CN(CCCCN)C[C@H]1Cc2ccccc2CN1`, the permeability entry in data set [1] and in data set [2] was “Impermeable” in each case.
For the compound `NCCCCN(Cc1nccs1)C[C@H]1Cc2ccccc2CN1`, the permeability result in data set [1] and in data set [2] was “Impermeable” in each case.
